What was measured:
[1] = Solubility in water and organic solvents; conditions: water
[2] = Absorption of SAMe salts in rats: areas under the SAMe plasmatic concentration curves (AUC); type: in vivo, Sprague Dawley male rats; conditions: 100 mg of active principle per kg, mean of 5 observations, extrapolated to infinity, 100 mg/kg; for AUC, intestinal administration: introduced into proximal jejunum; for AUC, oral administration: oral administration by gastric probe
Procedure: The absorption was studied on 110 Sprague Dawley male rats of weight 210 g which had fasted since the previous evening.
The products are administered in solution or in a 2% gum arabic aqueous suspension.
For each product, 5 rats are operated under ether anesthesia to allow the substance under examination to be introduced into the proximal jejunum. The wall incision is closed by ligature, and the animals sutured.
The product is administered to a further 5 animals orally by means of a gastric probe.
A blood sample is withdrawn from the caudal vein at the commencement and at 10, 20, 40, 60, 90, 120, 180 and 240 minutes after administration, and the SAMe concentration is determined on the sample by the modified method of Baldessarini and Kopin (J. Neurochem. 13: 769, 1966).
The plasmatic concentration values less the initial values are plotted against time and the areas under the time curves to infinity calculated by the trapezium and curve extrapolation method.
Areas under the SAMe plasmatic concentration curves (AUC) for rats treated intestinally and orally with the listed products at a dosage corresponding to 100 mg of active principle per kg of body weight. The values represent the mean of 5 observations.

Row | solubility [1] | Structure (SMILES) | AUC, intestinal administration [2] | AUC, oral administration [2]
1 | 10000 µg/mL | CCCCCCCCCCCCCCS(=O)(=O)[O-].[Na+] | – | –
2 | – | C[S+](CC[C@H](N)C(=O)[O-])C[C@H]1O[C@@H](n2cnc3c(N)ncnc32)[C@H](O)[C@@H]1O (some centres unmarked) [DBS, SAMe tri dodecylbenzenesulphonate] | 17000 N moles · ml^-1 × min | 7800 N moles · ml^-1 × min
3 | – | C[S+](CC[C@H](N)C(=O)[O-])C[C@H]1O[C@@H](n2cnc3c(N)ncnc32)[C@H](O)[C@@H]1O (some centres unmarked) [DSS, SAMe tri dioctylsulphosuccinate] | 18500 N moles · ml^-1 × min | 8000 N moles · ml^-1 × min
4 | – | C[S+](CC[C@H](N)C(=O)[O-])C[C@H]1O[C@@H](n2cnc3c(N)ncnc32)[C@H](O)[C@@H]1O (some centres unmarked) [Example S1, SAMe tri methanesulphonate, reference compound] | 4400 N moles · ml^-1 × min | 870 N moles · ml^-1 × min
5 | – | C[S+](CC[C@H](N)C(=O)[O-])C[C@H]1O[C@@H](n2cnc3c(N)ncnc32)[C@H](O)[C@@H]1O (some centres unmarked) [Example S5, SAMe tri pentanesulphonate, reference compound] | 4900 N moles · ml^-1 × min | 950 N moles · ml^-1 × min
6 | – | C[S+](CC[C@H](N)C(=O)[O-])C[C@H]1O[C@@H](n2cnc3c(N)ncnc32)[C@H](O)[C@@H]1O (some centres unmarked) [Example S6, SAMe tri hexanesulphonate, reference compound] | 6900 N moles · ml^-1 × min | 980 N moles · ml^-1 × min
7 | – | C[S+](CC[C@H](N)C(=O)[O-])C[C@H]1O[C@@H](n2cnc3c(N)ncnc32)[C@H](O)[C@@H]1O (some centres unmarked) [Example S12, SAMe tri dodecanesulphonate] | 25500 N moles · ml^-1 × min | 9700 N moles · ml^-1 × min
8 | – | C[S+](CC[C@H](N)C(=O)[O-])C[C@H]1O[C@@H](n2cnc3c(N)ncnc32)[C@H](O)[C@@H]1O (some centres unmarked) [Example S012, SAMe tri laurylsulphate] | 20800 N moles · ml^-1 × min | 8900 N moles · ml^-1 × min
9 | – | C[S+](CC[C@H](N)C(=O)[O-])C[C@H]1O[C@@H](n2cnc3c(N)ncnc32)[C@H](O)[C@@H]1O (some centres unmarked) [Example S14, SAMe tri tetradecanesulphonate] | 26800 N moles · ml^-1 × min | 9800 N moles · ml^-1 × min
10 | – | C[S+](CC[C@H](N)C(=O)[O-])C[C@H]1O[C@@H](n2cnc3c(N)ncnc32)[C@H](O)[C@@H]1O (some centres unmarked) [Example S16, SAMe tri hexadecanesulphonate] | 25300 N moles · ml^-1 × min | 9600 N moles · ml^-1 × min
11 | – | C[S+](CC[C@H](N)C(=O)[O-])C[C@H]1O[C@@H](n2cnc3c(N)ncnc32)[C@H](O)[C@@H]1O (some centres unmarked) [Example S18, SAMe tri octadecanesulphonate] | 24100 N moles · ml^-1 × min | 9400 N moles · ml^-1 × min
12 | – | C[S+](CC[C@H](N)C(=O)[O-])C[C@H]1O[C@@H](n2cnc3c(N)ncnc32)[C@H](O)[C@@H]1O (some centres unmarked) [SAMe SO4 -PTS, SAMe disulphatep-toluenesulphonate, reference compound] | 6700 N moles · ml^-1 × min | 990 N moles · ml^-1 × min

— patent US5128249A, “Stable sulpho-adenosyl-L-methionine (SAMe) salts, particularly suitable for oral pharmaceutical use” (Bioresearch S.p.a., priority 1984, dated 1992)
